Measurements: US11004539B2, “Predicting metabolic side effects of transported drugs” (The Regents of the University of California, priority 2016, dated 2021)
Where a name gives a salt, the structure may show the parent alone. Read-outs that look alike come from different tables or passages of the source.

What was measured:
OAT3 [1] = molecular target: T1, OAT3 (Mus musculus, UniProt O88909); experiment: Plasma metabolomics profiling of Oat3KO versus wild-type mice; conditions: Oat3KO vs wild type mice
T1 sequence (O88909 1-537): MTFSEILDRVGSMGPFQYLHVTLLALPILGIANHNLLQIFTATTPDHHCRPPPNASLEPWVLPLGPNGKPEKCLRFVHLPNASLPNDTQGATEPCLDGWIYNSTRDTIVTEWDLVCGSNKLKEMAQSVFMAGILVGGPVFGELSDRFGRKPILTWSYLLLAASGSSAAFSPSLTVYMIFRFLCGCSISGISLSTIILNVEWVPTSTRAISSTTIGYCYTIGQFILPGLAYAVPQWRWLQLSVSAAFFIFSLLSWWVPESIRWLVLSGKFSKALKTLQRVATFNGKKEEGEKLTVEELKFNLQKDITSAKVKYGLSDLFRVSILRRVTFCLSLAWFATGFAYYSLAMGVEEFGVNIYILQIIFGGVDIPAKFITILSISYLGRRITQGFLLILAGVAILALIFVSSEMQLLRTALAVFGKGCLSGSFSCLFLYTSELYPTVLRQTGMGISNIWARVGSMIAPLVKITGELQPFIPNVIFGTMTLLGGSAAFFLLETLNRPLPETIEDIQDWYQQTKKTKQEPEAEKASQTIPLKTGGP

OAT1 [2] = molecular target: T2, OAT1 (Mus musculus, UniProt Q8VC69); experiment: Uptake inhibition assay in Oat1-transfected CHO cells (6-carboxyfluorescein tracer); assay type: cell-based; parameters: expressed in transfected cells; host or cells: CHO cells; conditions: for Ki: read-out: calculated Ki; for interaction with OAT1 in in vitro assays: set of 8 predicted metabolites tested
T2 sequence (Q8VC69 1-545): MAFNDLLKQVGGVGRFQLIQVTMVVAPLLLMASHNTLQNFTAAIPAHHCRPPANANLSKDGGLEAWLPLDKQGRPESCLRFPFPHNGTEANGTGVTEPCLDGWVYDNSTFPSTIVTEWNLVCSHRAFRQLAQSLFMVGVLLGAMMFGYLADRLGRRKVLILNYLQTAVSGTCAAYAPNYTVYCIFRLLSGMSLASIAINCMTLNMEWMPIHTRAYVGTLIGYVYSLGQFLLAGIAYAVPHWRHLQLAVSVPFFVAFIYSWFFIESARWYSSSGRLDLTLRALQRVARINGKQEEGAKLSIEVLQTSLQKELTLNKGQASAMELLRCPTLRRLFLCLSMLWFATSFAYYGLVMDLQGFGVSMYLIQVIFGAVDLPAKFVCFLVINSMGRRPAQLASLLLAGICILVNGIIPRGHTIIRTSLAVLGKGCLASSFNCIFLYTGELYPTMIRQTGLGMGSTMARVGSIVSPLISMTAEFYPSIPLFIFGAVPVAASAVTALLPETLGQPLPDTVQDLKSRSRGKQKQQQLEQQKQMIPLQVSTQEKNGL
Experimental: (A) The IC50 curves for the metabolites characterized in the in vitro uptake inhibition assay using CHO stably expressing Oat1. […] (B) The table summarizes the calculated Ki and metabolic pathways the characterized metabolites were involved in.
Oat1-transfected CHO cells cultured on 96-well plates were incubated in the presence of 10 μM 6-carboxyfluorescein with or without individual metabolites (with controls treated with the OAT1 inhibitor probenecid). The IC50 curves for novel ligands were plotted in Prism Software (GraphPad Inc., San Diego, Calif.), and the IC50 values were converted to Ki (inhibition affinity) using the Cheng-Prusoff equation.

OAT3 [3] = molecular target: T1, OAT3; conditions: OAT3-expressing cells; 5-carboxyfluorescein as fluorescent tracer
OAT1 [4] = molecular target: T2, OAT1
OAT3 [5] = molecular target: T1, OAT3; experiment: cell-based
OAT1 [6] = molecular target: T2, OAT1; experiment: cell-based
OAT1 [7] = molecular target: T2, OAT1; experiment: Uptake inhibition assay, CHO cells constitutively expressing mouse Oat1; conditions: 6-carboxyfluorescein as fluorescent tracer
OAT1 [8] = molecular target: T2, OAT1; conditions: OAT1 vs OAT3; cited from earlier work
OAT3 [9] = molecular target: T1, OAT3; conditions: in vivo
[10] = statistical significance not achieved

CCCCCCCCC(O)C(=O)O (stereo not drawn) [2-hydroxydecanoate]
change in plasma of the Oat3KO (OAT3 [1]): altered

CCCC(O)CC(=O)O (stereo not drawn) [3-hydroxyhexanoate]
change in plasma of the Oat3KO (OAT3 [1]): altered

O=S(=O)(O)Oc1c[nH]c2ccccc12 [3-indoxyl sulfate]
change in plasma of the Oat3KO (OAT3 [1]): accumulate in the plasma

C[C@H](CCC(=O)O)[C@H]1CC[C@H]2[C@@H]3C(=O)C[C@@H]4C[C@H](O)CC[C@]4(C)[C@H]3C[C@H](O)[C@]12C [7-ketodeoxycholate]
change in plasma of the Oat3KO (OAT3 [1]): significantly increased

O=C(O)CCCCCCCCCCCCCCCO [16-hydroxy-hexadecanoic acid]
Ki (OAT1 [2]): 13 µM
interaction with OAT1 in in vitro assays (OAT1 [2]): directly interacting with OAT1

COc1cc(N)c(Cl)cc1C(=O)NC1CCN(CCCOc2ccc(F)cc2)CC1OC (stereo not drawn) [Cisapride]
IC50 OAT3 (OAT3 [3]): No ihhibition
IC50 OAT1 (OAT1 [4]): No inhibition

NC(=O)C(c1ccccc1)(c1ccccc1)[C@@H]1CCN(CCc2ccc3c(c2)CCO3)C1 [Darifenacin]
IC50 (OAT3 [5]): 198 µM
IC50 (OAT1 [6]): 807 µM

CCCCN(CCCC)CCC(O)c1cc2c(Cl)cc(Cl)cc2c2cc(C(F)(F)F)ccc12 (stereo not drawn) [Halofantrine]
IC50 OAT3 (OAT3 [3]): No inhibition
IC50 OAT1 (OAT1 [7]): No inhibition

CN(C)C(=O)C(CCN1CCC(O)(c2ccc(Cl)cc2)CC1)(c1ccccc1)c1ccccc1 [Loperamide]
IC50 OAT1 (OAT1 [7]): No significant
IC50 (OAT3 [5]): 95 µM

CC(=O)N[C@@H](CC(=O)c1ccccc1N)C(=O)O [N-acetylkynurenine]
change in plasma of the Oat3KO (OAT3 [1]): accumulate in the plasma

CC(=O)N[C@@H](Cc1c[nH]c2ccccc12)C(=O)O [N-acetyltryptophan]
change in plasma of the Oat3KO (OAT3 [1]): accumulate in the plasma

OC(CNCC(O)C1CCc2cc(F)ccc2O1)C1CCc2cc(F)ccc2O1 (stereo not drawn) [Nebivolol]
IC50 OAT1 (OAT1 [4]): No significant
IC50 (OAT3 [5]): 169 µM

Cc1nc2n(c(=O)c1CCN1CCC(c3noc4cc(F)ccc34)CC1)CCCC2O (stereo not drawn) [Paliperidone]
IC50 (OAT3 [5]): 260 µM
IC50 (OAT1 [6]): 1080 µM

CCCN(CCC)S(=O)(=O)c1ccc(C(=O)O)cc1 [Probenecid]
IC50 (OAT3 [5]): 33 µM

C[C@H](CCC(=O)O)[C@H]1CC[C@H]2[C@@H]3[C@@H](O)[C@@H](O)[C@@H]4C[C@H](O)CC[C@]4(C)[C@H]3CC[C@]12C [beta-muricholate]
increase in plasma of the Oat3KO (OAT3 [1]; significantly altered): over 24 fold

C[C@H](CCC(=O)O)[C@H]1CC[C@H]2[C@@H]3[C@H](O)C[C@@H]4C[C@H](O)CC[C@]4(C)[C@H]3CC[C@]12C [chenodeoxycholate]
change in plasma of the Oat3KO (OAT3 [1]; [10]): increased

C[C@H](CCC(=O)O)[C@H]1CC[C@H]2[C@@H]3[C@H](O)C[C@@H]4C[C@H](O)CC[C@]4(C)[C@H]3C[C@H](O)[C@]12C [cholate]
increase in plasma of the Oat3KO (OAT3 [1]; significantly altered): ~160 fold

CN/C(=N/CCSCc1nc[nH]c1C)NC#N [cimetidine]
affinity for OAT1 compared to OAT3, fold less (OAT1 [8]): roughly 10 fold

Nc1nc2c(c(=O)[nH]1)N=C(CNc1ccc(C(=O)N[C@@H](CCC(=O)O)C(=O)O)cc1)CN2 [dihydrofolic acid]
Ki (OAT1 [2]): 93 µM
interaction with OAT1 in in vitro assays (OAT1 [2]): directly interacting with OAT1

C[C@H](CCC(=O)NCC(=O)O)[C@H]1CC[C@H]2[C@@H]3[C@H](O)C[C@@H]4C[C@H](O)CC[C@]4(C)[C@H]3C[C@H](O)[C@]12C [glycocholate]
change in plasma of the Oat3KO (OAT3 [1]; [10]): increased

O=C(O)c1c[nH]c2ccccc12 [indole-3-carboxylic acid]
change in plasma of the Oat3KO (OAT3 [1]): accumulate in the plasma

O=C(O)C(O)Cc1c[nH]c2ccccc12 (stereo not drawn) [indolelactate]
change in plasma of the Oat3KO (OAT3 [9]): accumulate in the plasma

Cc1ccc(OS(=O)(=O)O)cc1 [p-cresol sulfate]
change in plasma of the Oat3KO (OAT3 [1]): significantly increased

Cc1ccc(O[C@@H]2O[C@H](C(=O)O)[C@@H](O)[C@H](O)[C@H]2O)cc1 [p-cresol-glucuronide]
change in plasma of the Oat3KO (OAT3 [1]): significantly increased

CCCCCC/C=C\CCCCCCCC(=O)O [palmitoleic acid]
Ki (OAT1 [2]): 200 µM
interaction with OAT1 in in vitro assays (OAT1 [2]): directly interacting with OAT1

O=S(=O)(O)Oc1ccccc1 [phenol sulfate]
change in plasma of the Oat3KO (OAT3 [1]): significantly increased

CCCCC[C@H](O)/C=C/[C@H]1[C@H](O)CC(=O)[C@@H]1CCCCCCC(=O)O [prostaglandin E1]
Ki (OAT1 [2]): 12 µM
interaction with OAT1 in in vitro assays (OAT1 [2]): directly interacting with OAT1

O=C(O)CCCCCCCCC(=O)O [sebacate]
change in plasma of the Oat3KO (OAT3 [1]): altered

NCCc1c[nH]c2ccc(O)cc12 [serotonin]
change in plasma of the Oat3KO (OAT3 [1]): accumulate in the plasma

C[C@H](CCC(=O)NCCS(=O)(=O)O)[C@H]1CC[C@H]2[C@@H]3[C@@H](O)[C@@H](O)[C@@H]4C[C@H](O)CC[C@]4(C)[C@H]3CC[C@]12C [tauro-beta-muricholate]
change in plasma of the Oat3KO (OAT3 [1]; [10]): increased

C[C@H](CCC(=O)NCCS(=O)(=O)O)[C@H]1CC[C@H]2[C@@H]3[C@H](O)C[C@@H]4C[C@H](O)CC[C@]4(C)[C@H]3CC[C@]12C [taurochenodeoxycholate]
increase in plasma of the Oat3KO (OAT3 [1]; did not reach statistical significance): ~30 fold

C[C@H](CCC(=O)NCCS(=O)(=O)O)[C@H]1CC[C@H]2[C@@H]3CC[C@@H]4C[C@H](O)CC[C@]4(C)[C@H]3C[C@H](O)[C@]12C [taurodeoxycholate]
change in plasma of the Oat3KO (OAT3 [1]; [10]): increased over ten-fold

C[C@H](CCC(=O)NCCS(=O)(=O)[O-])[C@H]1CC[C@H]2[C@@H]3C[C@H](O)[C@@H]4C[C@H](O)CC[C@]4(C)[C@H]3CC[C@]12C.[Na+] [taurohyodeoxycholic acid]
change in plasma of the Oat3KO (OAT3 [1]; [10]): increased over ten-fold

C[C@H](CCC(=O)NCCS(=O)(=O)O)[C@H]1CC[C@H]2[C@@H]3[C@@H](O)C[C@@H]4C[C@H](O)CC[C@]4(C)[C@H]3CC[C@]12C [tauroursodeoxycholate]
change in plasma of the Oat3KO (OAT3 [1]; [10]): increased over ten-fold

O=C(O)CCCCCCCCCCCCC(=O)O [tetradecanedioate]
change in plasma of the Oat3KO (OAT3 [1]): altered

C[C@H](CCC(=O)O)[C@H]1CC[C@H]2[C@@H]3[C@@H](O)C[C@@H]4C[C@H](O)CC[C@]4(C)[C@H]3CC[C@]12C [ursodeoxycholate]
change in plasma of the Oat3KO (OAT3 [1]): significantly increased

equol glucuronide
increase in plasma of the Oat3KO (OAT3 [1]; significantly altered): more than 42 fold

equol sulfate
increase in plasma of the Oat3KO (OAT3 [1]; significantly altered): more than 7 fold
